Results as given in patent publication US20020026053A1, “Novel 3-(substituted) -2- indolinones compounds and use thereof as inhibitors of protein kinase activity” (priority 1997, published 2002).

System: PDGF-R
Assay: PDGF-R Assay (cellular ELISA, U1242 cells)
Type: cell-based
Set-up: concentration or dose not given beside the values
Settings: protocol P.119
In short: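 U1242 cells seeded in 0.5% serum, serum-starved, then exposed to compound for 2 hr at 37°C before 5–10 min ligand stimulation and lysis in HNTG. Lysate captured on receptor-antibody-coated plates; phosphotyrosine detected with polyclonal anti-pTyr, goat anti-rabbit IgG and ABTS/H2O2, A410 (ref 630 nm), versus untreated cells.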

| Structure (SMILES) | PDGF Kinase % Inhibition (P.119) |
| --- | --- |
| Cc1c(Br)cc(Br)c2c1C(=Cc1ccc(CO)o1)C(=O)N2 [10739/H11] | 4.2% |

Target: T1, EGFR (Homo sapiens, UniProt P00533)
T1 construct: endogenous in cells; host or cells: A431 cells (lysate, captured with SUMO1 anti-EGFR antibody)
T1 sequence (P00533 25-1210): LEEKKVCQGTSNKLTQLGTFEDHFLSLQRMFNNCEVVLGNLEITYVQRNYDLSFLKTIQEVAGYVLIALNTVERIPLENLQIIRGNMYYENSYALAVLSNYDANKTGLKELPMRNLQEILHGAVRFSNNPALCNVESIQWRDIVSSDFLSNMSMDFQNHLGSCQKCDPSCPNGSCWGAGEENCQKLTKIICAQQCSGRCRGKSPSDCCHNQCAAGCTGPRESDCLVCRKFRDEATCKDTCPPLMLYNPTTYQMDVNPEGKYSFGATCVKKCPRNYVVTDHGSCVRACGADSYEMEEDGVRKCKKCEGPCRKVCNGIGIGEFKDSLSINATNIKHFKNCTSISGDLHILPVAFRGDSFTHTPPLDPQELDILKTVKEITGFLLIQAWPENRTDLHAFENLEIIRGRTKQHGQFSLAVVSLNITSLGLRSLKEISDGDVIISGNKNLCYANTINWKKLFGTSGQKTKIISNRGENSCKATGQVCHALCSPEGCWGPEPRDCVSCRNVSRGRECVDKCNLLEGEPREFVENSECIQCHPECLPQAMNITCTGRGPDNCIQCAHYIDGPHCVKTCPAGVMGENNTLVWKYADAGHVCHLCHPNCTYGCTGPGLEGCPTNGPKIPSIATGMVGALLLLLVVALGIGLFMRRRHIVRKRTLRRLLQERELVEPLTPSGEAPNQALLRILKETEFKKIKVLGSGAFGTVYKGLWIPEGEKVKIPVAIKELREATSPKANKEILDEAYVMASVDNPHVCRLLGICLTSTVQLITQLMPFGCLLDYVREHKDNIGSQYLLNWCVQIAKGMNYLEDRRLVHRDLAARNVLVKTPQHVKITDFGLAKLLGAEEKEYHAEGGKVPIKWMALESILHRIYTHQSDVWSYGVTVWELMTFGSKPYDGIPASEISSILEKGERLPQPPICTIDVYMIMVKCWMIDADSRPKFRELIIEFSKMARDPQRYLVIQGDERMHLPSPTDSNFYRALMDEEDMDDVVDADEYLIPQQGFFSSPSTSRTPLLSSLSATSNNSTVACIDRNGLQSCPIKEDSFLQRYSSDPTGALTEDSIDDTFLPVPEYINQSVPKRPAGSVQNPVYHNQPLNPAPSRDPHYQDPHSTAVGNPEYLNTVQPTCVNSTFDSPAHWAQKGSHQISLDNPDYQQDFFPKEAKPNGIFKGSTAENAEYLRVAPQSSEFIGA
Assay: Biochemical EGFR Assay
Set-up: concentration or dose not given beside the values
Settings: protocol P.167
In short: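 EGFR from A431 lysate was captured on anti-EGFR-coated wells and preincubated 30 min with compound (diluted 1:10 in TBS) at room temperature. After ATP/MnCl2 phosphorylation for 5 min, the reaction was stopped with EDTA. Phosphotyrosine was detected by ELISA (anti-phosphotyrosine, peroxidase conjugate, ABTS) at 410 nm.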

| Structure (SMILES) | Biochem EGFR % Inhibition (P.167) |
| --- | --- |
| O=C1Nc2ccc(S(=O)(=O)Nc3ccc(C(F)(F)F)cc3)cc2C1=Cc1ccc2ccccc2n1 [10740/E06] | 0.0% |
| Cn1cc(C=C2C(=O)Nc3ccc(S(=O)(=O)Nc4ccc(C(F)(F)F)cc4)cc32)c2ccccc21 [10740/E07] | 2.7% |
| O=C1Nc2ccc(S(=O)(=O)N3CCOCC3)cc2C1=Cc1cnc2ccccc2c1 [10740/F02] | 5.8% |
| CCCCOc1ccc(C=C2C(=O)Nc3ccc(S(=O)(=O)Nc4ccc(C(F)(F)F)cc4)cc32)cc1 [10740/E11] | 8.8% |
| O=C1Nc2ccc(CCCl)cc2C1=Cc1ccnc2ccccc12 [10740/G03] | 19.5% |
| Cc1c(Br)ccc2c1C(=Cc1ccc3ccccc3n1)C(=O)N2 [10740/C06] | 18.2% |
| Cn1cc(C=C2C(=O)Nc3ccc(I)cc32)c2ccccc21 [10740/B07] | 48.9% |
| CNS(=O)(=O)c1ccc2c(c1)C(=Cc1ccsc1)C(=O)N2 [10740/D05] | 7.4% |
| Cc1c(Br)cc(Br)c2c1C(=Cc1ccc(CO)o1)C(=O)N2 [10739/H11] | 49.9% |
| COC1CCCN1C=C1C(=O)Nc2ccc(S(=O)(=O)N3CCOCC3)cc21 (centres unmarked) [10740/F04] | 11.1% |
| O=C1Nc2ccc(I)cc2C1=Cc1ccnc2ccccc12 [10740/B03] | 40.1% |
| COC1CCCN1C=C1C(=O)Nc2c(Br)cc(Br)c(C)c21 (centres unmarked) [10740/H04] | −21.0% |
| CNS(=O)(=O)c1ccc2c(c1)C(=Cc1ccnc3ccccc13)C(=O)N2 [10740/D03] | −6.9% |
| COC1CCCN1C=C1C(=O)Nc2c(Br)cc(Br)cc21 (racemic) [10740/A04] | 5.2% |
| CCCCOc1ccc(C=C2C(=O)Nc3ccc(S(=O)(=O)NC)cc32)cc1 [10740/D11] | 19.3% |
| O=C1Nc2ccc(CCCl)cc2C1=Cc1cc(Br)cs1 [10740/G10] | 1.9% |
| CNS(=O)(=O)c1ccc2c(c1)C(=Cc1cnc3ccccc3c1)C(=O)N2 [10740/D02] | 0.0% |
| O=C1Nc2ccc(CCCl)cc2C1=Cc1cnc2ccccc2c1 [10740/G02] | −9.4% |
| O=C1Nc2ccc(S(=O)(=O)Nc3ccc(C(F)(F)F)cc3)cc2C1=Cc1ccsc1 [10740/E05] | 29.1% |
| Cc1[nH]c2ccccc2c1C=C1C(=O)Nc2ccc(CCCl)cc21 [10740/G08] | −9.1% |
| COC1CCCN1C=C1C(=O)Nc2ccc(CCCl)cc21 (centres unmarked) [10740/G04] | 7.6% |
| O=C1Nc2c(Br)cc(Br)cc2C1=Cc1cc(Br)cs1 [10740/A10] | 21.9% |
| Cc1c(Br)cc(Br)c2c1C(=Cc1cc(Br)cs1)C(=O)N2 [10740/H10] | −25.5% |
| Cc1c(Br)cc(Br)c2c1C(=Cc1cnc3ccccc3c1)C(=O)N2 [10740/H02] | −9.1% |
| Cc1c(Br)cc(Br)c2c1C(=Cc1ccnc3ccccc13)C(=O)N2 [10740/H03] | 16.0% |

| Structure (SMILES) | Biochem EGFR % Inhibition (P.167) |
| --- | --- |
| Cn1cc(C=C2C(=O)Nc3c(Br)cc(Br)cc32)c2ccccc21 [10740/A07] | 18.7% |
| COC1CCCN1C=C1C(=O)Nc2ccc(I)cc21 (racemic) [10740/B04] | 36.9% |
| O=C1Nc2ccc(I)cc2C1=Cc1cc(Br)cs1 [10740/B10] | 39.9% |
| O=C1Nc2ccc(S(=O)(=O)Nc3ccc(C(F)(F)F)cc3)cc2C1=Cc1cc(Br)cs1 [10740/E10] | 33.0% |
| O=C1Nc2ccc(I)cc2C1=Cc1ccsc1 [10740/B05] | 30.7% |
| O=C1Nc2ccc(CCCl)cc2C1=Cc1ccc2ccccc2n1 [10740/G06] | −1.2% |
| CNS(=O)(=O)c1ccc2c(c1)C(=Cc1cc(Br)cs1)C(=O)N2 [10740/D10] | 9.9% |
| Cc1c(Br)ccc2c1C(=Cc1cc(Br)cs1)C(=O)N2 [10740/C10] | 21.9% |
| Cc1c(Br)ccc2c1C(=Cc1cn(C)c3ccccc13)C(=O)N2 [10740/C07] | 5.0% |
| CCCCOc1ccc(C=C2C(=O)Nc3ccc(S(=O)(=O)N4CCOCC4)cc32)cc1 [10740/F11] | 5.4% |
| Cc1[nH]c2ccccc2c1C=C1C(=O)Nc2c(Br)cc(Br)c(C)c21 [10740/H08] | −24.3% |
| Cn1cc(C=C2C(=O)Nc3ccc(CCCl)cc32)c2ccccc21 [10740/G07] | 27.9% |
| CCCCOc1ccc(C=C2C(=O)Nc3ccc(I)cc32)cc1 [10740/B11] | 48.1% |
| CCCCOc1ccc(C=C2C(=O)Nc3c(Br)cc(Br)cc32)cc1 [10740/A11] | 26.0% |
| Cc1c(Br)cc(Br)c2c1C(=Cc1cn(C)c3ccccc13)C(=O)N2 [10740/H07] | −5.3% |
| Cn1cc(C=C2C(=O)Nc3ccc(S(=O)(=O)N4CCOCC4)cc32)c2ccccc21 [10740/F07] | −4.2% |
| O=C1Nc2c(Br)cc(Br)cc2C1=Cc1ccnc2ccccc12 [10740/A03] | 8.2% |
| Cc1c(Br)ccc2c1C(=Cc1ccnc3ccccc13)C(=O)N2 [10740/C03] | 7.2% |
| O=C1Nc2ccc(I)cc2C1=Cc1ccc2ccccc2n1 [10740/B06] | 44.4% |
| O=C1Nc2ccc(S(=O)(=O)Nc3ccc(C(F)(F)F)cc3)cc2C1=Cc1cnc2ccccc2c1 [10740/E02] | −7.7% |
| CNS(=O)(=O)c1ccc2c(c1)C(=CN1CCCC1OC)C(=O)N2 (centres unmarked) [10740/D04] | −1.2% |
| Cc1[nH]c2ccccc2c1C=C1C(=O)Nc2c(Br)cc(Br)cc21 [10740/A08] | −7.9% |
| Cc1c(Br)cc(Br)c2c1C(=Cc1ccc3ccccc3n1)C(=O)N2 [10740/H06] | 4.8% |
| Cc1c(Br)ccc2c1C(=Cc1cnc3ccccc3c1)C(=O)N2 [10740/C02] | 15.6% |
| CNS(=O)(=O)c1ccc2c(c1)C(=Cc1ccc3ccccc3n1)C(=O)N2 [10740/D06] | 5.8% |

| Structure (SMILES) | Biochem EGFR % Inhibition (P.167) |
| --- | --- |
| O=C1Nc2ccc(S(=O)(=O)N3CCOCC3)cc2C1=Cc1ccsc1 [10740/F05] | 14.8% |
| CCCCOc1ccc(C=C2C(=O)Nc3c(Br)cc(Br)c(C)c32)cc1 [10740/H11] | 0.9% |
| O=C1Nc2ccc(CCCl)cc2C1=Cc1ccsc1 [10740/G05] | 18.7% |
| O=C1Nc2c(Br)cc(Br)cc2C1=Cc1ccc2ccccc2n1 [10740/A06] | 13.1% |
| O=C1Nc2c(Br)cc(Br)cc2C1=Cc1cnc2ccccc2c1 [10740/A02] | −2.4% |
| Cc1[nH]c2ccccc2c1C=C1C(=O)Nc2ccc(I)cc21 [10740/B08] | 34.8% |
| CCCCOc1ccc(C=C2C(=O)Nc3ccc(Br)c(C)c32)cc1 [10740/C11] | 18.7% |
| O=C1Nc2ccc(I)cc2C1=Cc1cnc2ccccc2c1 [10740/B02] | 46.1% |
| Cc1[nH]c2ccccc2c1C=C1C(=O)Nc2ccc(S(=O)(=O)N3CCOCC3)cc21 [10740/F08] | 5.0% |
| CNS(=O)(=O)c1ccc2c(c1)C(=Cc1cn(C)c3ccccc13)C(=O)N2 [10740/D07] | −3.0% |
| Cc1[nH]c2ccccc2c1C=C1C(=O)Nc2ccc(S(=O)(=O)Nc3ccc(C(F)(F)F)cc3)cc21 [10740/E08] | 3.1% |
| O=C1Nc2ccc(S(=O)(=O)N3CCOCC3)cc2C1=Cc1ccc2ccccc2n1 [10740/F06] | 19.9% |
| O=C1Nc2ccc(S(=O)(=O)N3CCOCC3)cc2C1=Cc1cc(Br)cs1 [10740/F10] | 9.5% |
| Cc1c(Br)cc(Br)c2c1C(=Cc1ccsc1)C(=O)N2 [10740/H05] | −4.4% |
| O=C1Nc2ccc(S(=O)(=O)Nc3ccc(C(F)(F)F)cc3)cc2C1=Cc1ccnc2ccccc12 [10740/E03] | 24.6% |
| O=C1Nc2c(Br)cc(Br)cc2C1=Cc1ccsc1 [10740/A05] | 30.3% |
| Cc1[nH]c2ccccc2c1C=C1C(=O)Nc2ccc(Br)c(C)c21 [10740/C08] | 10.7% |
| COC1CCCN1C=C1C(=O)Nc2ccc(Br)c(C)c21 (centres unmarked) [10740/C04] | 7.8% |
| COC1CCCN1C=C1C(=O)Nc2ccc(S(=O)(=O)Nc3ccc(C(F)(F)F)cc3)cc21 (centres unmarked) [10740/E04] | 12.3% |
| Cc1c(Br)ccc2c1C(=Cc1ccsc1)C(=O)N2 [10740/C05] | 3.5% |
| O=C1Nc2ccc(S(=O)(=O)N3CCOCC3)cc2C1=Cc1ccnc2ccccc12 [10740/F03] | 16.8% |
| CCCCOc1ccc(C=C2C(=O)Nc3ccc(CCCl)cc32)cc1 [10740/G11] | −3.4% |
| CNS(=O)(=O)c1ccc2c(c1)C(=Cc1c(C)[nH]c3ccccc13)C(=O)N2 [10740/D08] | −5.7% |
